Laboratory results published in patent publication US11214803B2, “Modulators of YAP1 expression” (Ionis Pharmaceuticals, Inc., priority 2019, dated 2022).
Strand notation (5' to 3'): a small letter for the sugar, then the base; units joined by * are phosphorothioate-linked, units joined directly phosphodiester-linked; [ ] holds rarer units or linkages, { } end groups; capitals alone tell only the bases. k = constrained ethyl (cEt); [5mC] = 5-methylcytosine; d = 2'-deoxy (DNA)

Tested on: Yap1 mRNA
Experiment: Antisense inhibition of human Yap1 in A-431 cells by cEt gapmers, single dose (Example 3, RTS36584)
Type: cell-based
Method in brief: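 Single-dose free-uptake screen of 3-10-3 cEt gapmers in A-431 cells at 2,000 nM over about 48 h. Values are % untreated control Yap1 mRNA.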

[1] = Table 13, A-431 cells, 5,000 cells per well, free uptake, 2,000 nM modified oligonucleotide, approx. 48 hours, RTS36584, normalized to RIBOGREEN, Yap1 mRNA relative to untreated control cells
[2] = Table 26, Yap1 mRNA by 3-10-3 cEt gapmers targeting SEQ ID NO.: 1, and 2, percent of untreated control
[3] = Table 11, A-431 cells, 5,000 cells per well, free uptake, 2,000 nM oligonucleotide, approx. 48 hours, primer probe set RTS36584, Yap1 mRNA normalized to RIBOGREEN, percent of untreated control
[4] = Table 10, A-431 cells, 5,000 cells per well, free uptake, 2,000 nM oligonucleotide, approx. 48 hours, primer probe set RTS36584, Yap1 mRNA normalized to RIBOGREEN, percent of untreated control
[5] = Table 12, A-431 cells, 5,000 cells per well, free uptake, 2,000 nM modified oligonucleotide, approx. 48 hours, RTS36584, normalized to RIBOGREEN, Yap1 mRNA relative to untreated control cells
[6] = Table 28, Yap1 mRNA as percent of untreated control, 3-10-3 cEt gapmers targeting SEQ ID NO.: 1, and 2
[7] = Table 8, A-431 cells, 5,000 cells per well, free uptake, 2,000 nM, approximately 48 hours, RTS36584, normalized to RIBOGREEN, Yap1 mRNA relative to untreated control cells
[8] = Table 29, Yap1 mRNA as percent of untreated control, 3-10-3 cEt gapmers targeting SEQ ID NO.: 1, and 2
[9] = Table 9, A-431 cells, 5,000 cells per well, free uptake, 2,000 nM, approximately 48 hours, RTS36584, normalized to RIBOGREEN, Yap1 mRNA relative to untreated control cells
[10] = Table 35, Yap1 mRNA as percent of untreated control, 3-10-3 cEt gapmers targeting SEQ ID NO: 1 and 2, single dose
[11] = Table 27, Yap1 mRNA by 3-10-3 cEt gapmers targeting SEQ ID NO.: 1, and 2, percent of untreated control

Substance: 958585 (k[5mC]*kT*k[5mC]*dT*dA*dT*d[5mC]*dA*dA*dG*dG*dT*d[5mC]*k[5mC]*k[5mC]*k[5mC]; antisense) [Compound 958585]
- YAP1 (% UTC) [1]: 5 % UTC

Substance: 1074324 (antisense kG*k[5mC]*kA*dG*dG*dG*d[5mC]*dT*dA*dA*d[5mC]*dT*d[5mC]*k[5mC]*kT*kG) [compound 1074324]
- YAP1 (% UTC) (Table 34, Yap1 mRNA as percent of untreated control, 3-10-3 cEt gapmers targeting SEQ ID NO: 1 and 2, single dose): 116 % UTC

Substance: 1075724 (k[5mC]*kT*kA*dT*d[5mC]*dT*dG*dT*d[5mC]*dA*dG*dT*dT*kA*kT*k[5mC]; antisense) [compound 1075724]
- YAP1 (% UTC) [2]: 44 % UTC

Substance: 958533 (kG*k[5mC]*kA*dT*dA*dG*dA*dA*dG*dT*dA*dG*dG*kA*kG*k[5mC]; antisense) [Compound 958533]
- YAP1 (% UTC) [3]: 3 % UTC

Substance: 958447 (antisense kG*kT*kT*dG*dA*dG*dG*d[5mC]*dG*dG*d[5mC]*dG*dG*k[5mC]*kT*kG) [Compound 958447]
- YAP1 (% UTC) [4]: 48 % UTC

Substance: 958674 (kA*kA*kG*dA*dA*d[5mC]*dT*dT*dA*dG*dT*dT*d[5mC]*k[5mC]*k[5mC]*kT; antisense) [Compound 958674]
- YAP1 (% UTC) [5]: 25 % UTC

Substance: 958719 (antisense kG*kT*kA*d[5mC]*dA*dT*dA*dA*dT*dG*dG*dG*d[5mC]*kT*kA*kA) [Compound 958719]
- YAP1 (% UTC) [5]: 49 % UTC

Substance: 1075982 (k[5mC]*kA*kT*dG*dA*dA*dA*dG*d[5mC]*dA*dA*dT*dA*kT*k[5mC]*k[5mC]; antisense) [compound 1075982]
- YAP1 (% UTC) [6]: 23 % UTC

Substance: 958359 (antisense kT*kG*k[5mC]*dA*dT*d[5mC]*dA*dG*dT*dA*d[5mC]*dT*dG*kG*k[5mC]*k[5mC]) [Compound 958359]
- YAP1 (% UTC) [7]: 117 % UTC

Substance: 958555 (kG*k[5mC]*kT*dT*dA*dT*dA*dT*dT*dG*dA*dA*dG*kA*kG*kT; antisense) [Compound 958555]
- YAP1 (% UTC) [1]: 4 % UTC

Substance: 1075215 (kA*kA*kA*d[5mC]*dA*dA*dT*dA*dA*dA*dG*dG*dG*kT*k[5mC]*k[5mC]; antisense) [compound 1075215]
- YAP1 (% UTC) [8]: 44 % UTC

Substance: 1076332 (antisense kT*kA*kT*dA*dA*dG*dG*dA*dA*dT*dG*dG*d[5mC]*kA*kA*k[5mC]) [compound 1076332]
- YAP1 (% UTC) [2]: 107 % UTC

Substance: 958581 (k[5mC]*kT*kG*d[5mC]*dT*dG*dA*dT*dA*dT*dA*dT*dA*kA*kG*kA; antisense) [Compound 958581]
- YAP1 (% UTC) [9]: 26 % UTC

Substance: 1075925 (antisense kA*kA*k[5mC]*d[5mC]*dT*dA*dT*dA*dT*dT*dA*dT*dT*kT*kG*k[5mC]) [compound 1075925]
- YAP1 (% UTC) [10]: 28 % UTC

Substance: 958537 (k[5mC]*kA*kG*dG*dG*dT*d[5mC]*dA*dA*dT*dT*dT*dT*k[5mC]*kA*kG; antisense) [Compound 958537]
- YAP1 (% UTC) [4]: 3 % UTC

Substance: 958692 (antisense kG*kG*k[5mC]*dT*dA*dG*dA*dG*dG*d[5mC]*d[5mC]*dG*dG*kG*kT*kG) [Compound 958692]
- YAP1 (% UTC) [4]: 105 % UTC

Substance: 1075957 (k[5mC]*kT*kA*dT*dA*dA*dA*dG*d[5mC]*dA*dA*dT*dG*k[5mC]*kG*kA; antisense) [compound 1075957]
- YAP1 (% UTC) [10]: 28 % UTC

Substance: 958559 (kA*kA*kT*dT*d[5mC]*dA*d[5mC]*dA*dA*d[5mC]*d[5mC]*dA*dA*k[5mC]*kT*kA; antisense) [Compound 958559]
- YAP1 (% UTC) [5]: 17 % UTC

Substance: 958511 (k[5mC]*kA*k[5mC]*dT*dA*d[5mC]*d[5mC]*dA*d[5mC]*dA*d[5mC]*dT*dA*kT*kT*kA; antisense) [Compound 958511]
- YAP1 (% UTC) [9]: 31 % UTC

Substance: 1075629 (antisense kG*k[5mC]*k[5mC]*dG*d[5mC]*dA*dA*dA*dA*dT*dA*dT*dT*kA*kA*kT) [compound 1075629]
- YAP1 (% UTC) [11]: 100 % UTC

Substance: 958552 (kT*kA*kT*dT*dA*d[5mC]*dT*d[5mC]*d[5mC]*dT*dG*dT*dA*kG*kA*k[5mC]; antisense) [Compound 958552]
- YAP1 (% UTC) [4]: 16 % UTC

Substance: 958444 (antisense kA*k[5mC]*kG*d[5mC]*d[5mC]*d[5mC]*d[5mC]*dG*dG*d[5mC]*dT*d[5mC]*d[5mC]*kA*k[5mC]*kG) [Compound 958444]
- YAP1 (% UTC) [5]: 97 % UTC

Substance: 958396 (antisense kA*kG*kG*d[5mC]*dT*dA*dT*dT*dA*dA*dG*d[5mC]*dT*kG*kT*kT) [Compound 958396]
- YAP1 (% UTC) [7]: 131 % UTC

Substance: 1075468 (antisense k[5mC]*kA*k[5mC]*d[5mC]*dA*dA*dT*dA*d[5mC]*dT*dG*dA*dG*kT*kA*kT) [compound 1075468]
- YAP1 (% UTC) [2]: 91 % UTC

Substance: 958577 (kT*k[5mC]*kT*dG*dT*dG*dG*d[5mC]*dT*dA*d[5mC]*dT*dG*kG*k[5mC]*kA; antisense) [Compound 958577]
- YAP1 (% UTC) [4]: 4 % UTC

Substance: 1074293 (antisense kG*k[5mC]*kT*dG*dT*dT*dT*d[5mC]*dA*d[5mC]*dT*dG*dG*kA*kG*k[5mC]) [compound 1074293]
- YAP1 (% UTC) [10]: 54 % UTC

Substance: 958784 (antisense kG*kG*k[5mC]*dT*dG*dG*dA*dT*dA*dG*dA*dA*dT*kG*k[5mC]*kT) [Compound 958784]
- YAP1 (% UTC) [5]: 79 % UTC

Substance: 1075149 (kG*k[5mC]*kG*dG*dA*dA*dA*dA*dA*dA*d[5mC]*dA*d[5mC]*k[5mC]*kT*kA; antisense) [compound 1075149]
- YAP1 (% UTC) [11]: 50 % UTC

Substance: 958415 (antisense k[5mC]*kT*kG*dT*dG*dT*dA*dG*dG*d[5mC]*dT*dG*dA*k[5mC]*kT*kT) [Compound 958415]
- YAP1 (% UTC) [7]: 16 % UTC

Substance: 958758 (antisense k[5mC]*kT*kA*dT*dT*d[5mC]*dA*dG*dT*dG*dA*dT*d[5mC]*kT*kG*k[5mC]) [Compound 958758]
- YAP1 (% UTC) [3]: 2 % UTC

Substance: 958474 (antisense kG*kT*kG*dT*d[5mC]*dT*d[5mC]*d[5mC]*dT*dT*dA*dG*dA*kT*k[5mC]*k[5mC]) [Compound 958474]
- YAP1 (% UTC) [5]: 3 % UTC

Substance: 958357 (antisense k[5mC]*kG*kG*d[5mC]*dT*dT*dG*dA*dA*dG*dA*dA*dG*kG*kA*kG) [Compound 958357]
- YAP1 (% UTC) [7]: 12 % UTC

Substance: 958580 (kA*kT*kA*dA*dT*d[5mC]*dT*dT*dA*dA*dT*d[5mC]*dT*kG*kT*kG; antisense) [Compound 958580]
- YAP1 (% UTC) [1]: 4 % UTC

Substance: 958539 (kT*k[5mC]*kT*dA*dT*d[5mC]*d[5mC]*dA*dG*dG*dG*dT*d[5mC]*kA*kA*kT; antisense) [Compound 958539]
- YAP1 (% UTC) [5]: 11 % UTC

Substance: 958547 (k[5mC]*kA*k[5mC]*dA*dT*dA*d[5mC]*dT*d[5mC]*dT*dA*dG*dT*kT*kA*k[5mC]; antisense) [Compound 958547]
- YAP1 (% UTC) [4]: 4 % UTC

Substance: 1074700 (antisense kG*kT*kA*dA*dG*dA*d[5mC]*dA*dA*dG*dT*d[5mC]*dT*kT*kT*kA) [compound 1074700]
- YAP1 (% UTC) [2]: 26 % UTC

Substance: 958506 (kG*k[5mC]*kA*dG*dA*dT*dA*dA*dT*d[5mC]*dG*dA*dG*kA*kT*kT; antisense) [Compound 958506]
- YAP1 (% UTC) [9]: 6 % UTC

Substance: 958462 (antisense kA*k[5mC]*kT*dG*dG*d[5mC]*dT*dA*d[5mC]*dG*d[5mC]*dA*dG*kG*kG*k[5mC]) [Compound 958462]
- YAP1 (% UTC) [4]: 46 % UTC

Substance: 1075884 (antisense kA*kT*kT*dA*dG*dT*dA*dA*dT*dG*dA*d[5mC]*dT*kA*kA*k[5mC]) [compound 1075884]
- YAP1 (% UTC) [2]: 116 % UTC

Substance: 958418 (antisense kA*kG*kA*dG*d[5mC]*d[5mC]*dT*dA*d[5mC]*d[5mC]*dT*dG*dA*k[5mC]*kA*kT) [Compound 958418]
- YAP1 (% UTC) [7]: 47 % UTC

Substance: 1075021 (antisense kT*kT*kA*d[5mC]*dA*dA*d[5mC]*d[5mC]*dT*dA*dG*dA*dT*kT*kT*kG) [compound 1075021]
- YAP1 (% UTC) [11]: 68 % UTC

Substance: 1075244 (kA*k[5mC]*k[5mC]*d[5mC]*dA*dA*dA*dA*dA*dT*dT*d[5mC]*dT*kG*kT*kG; antisense) [compound 1075244]
- YAP1 (% UTC) [2]: 76 % UTC

Substance: 1076341 (antisense kA*kT*kT*dA*dA*d[5mC]*dT*dA*d[5mC]*dA*dA*d[5mC]*dT*kG*kT*kG) [compound 1076341]
- YAP1 (% UTC) [10]: 18 % UTC

Substance: 1075470 (antisense kG*k[5mC]*k[5mC]*dA*dA*dT*dA*dA*dG*dT*dT*dA*dT*k[5mC]*kA*kA) [compound 1075470]
- YAP1 (% UTC) [6]: 50 % UTC

Substance: 1075438 (antisense k[5mC]*kA*kT*dA*dT*dT*dA*dG*dA*dG*dT*dT*dG*kA*kG*kG) [compound 1075438]
- YAP1 (% UTC) [6]: 22 % UTC

Substance: 958487 (kT*k[5mC]*k[5mC]*dA*dA*dA*d[5mC]*dA*dG*dG*d[5mC]*dT*d[5mC]*kA*k[5mC]*kT; antisense) [Compound 958487]
- YAP1 (% UTC) [4]: 10 % UTC

Substance: 1075183 (kA*kT*kT*dA*d[5mC]*dT*dA*dA*dG*dA*d[5mC]*dA*dG*kT*kG*kG; antisense) [compound 1075183]
- YAP1 (% UTC) [8]: 15 % UTC
